The values that follow are results of earlier work, collected in patent US20230018600A1, “CONTROLLED RELEASE FORMULATIONS COMPRISING DROTAVERINE OR SALT THEREOF” (priority 2020, published 2023).

Experiment in data set [1]: not given
This is another data set of the same source.

Data set [2] relates to human isolated detrusor muscle. The note with it: induced plateau of contraction.

On to `CCOc1ccc(/C=C2\NCCc3cc(OCC)c(OCC)cc32)cc1OCC` [Drotaverine, (Z)-1-(3,4-diethoxybenzylidene)-6,7-diethoxy-1,2,3,4-tetrahydroisoquinoline], for which, under “IR Drotaverine Tablets 80 mg”, the “renal clearance as share of total plasma clearance” value is listed as 0.31+/−0.13%. In addition, the onset of action (after oral administration of 80 mg strength IR tablets) is at most 12 min. Further, the “drug absorption from small intestine” value (oral, 80 mg IR tablets) is reported as around 90%. In addition, where the note is “oral, IR tablets 80 mg, subject-dependent range”, the “absolute bioavailability, range” value was 24.5-91%. The “oral LD50” value in data set [1] is on record as above 1000 mg/Kg body weight. Besides, the “relaxation of human detrusor muscle contraction” value in data set [2] is reported as “significant concentration-dependent relaxation”.
